This passage reports IC50 results from US11396501B2, “Heteroaryl compounds as CXCR4 inhibitors, composition and method using the same” (CGENETECH (SUZHOU, CHINA) CO., LTD., priority 2017, dated 2022).

Sequence of CXCR4 (P61073 whole entry): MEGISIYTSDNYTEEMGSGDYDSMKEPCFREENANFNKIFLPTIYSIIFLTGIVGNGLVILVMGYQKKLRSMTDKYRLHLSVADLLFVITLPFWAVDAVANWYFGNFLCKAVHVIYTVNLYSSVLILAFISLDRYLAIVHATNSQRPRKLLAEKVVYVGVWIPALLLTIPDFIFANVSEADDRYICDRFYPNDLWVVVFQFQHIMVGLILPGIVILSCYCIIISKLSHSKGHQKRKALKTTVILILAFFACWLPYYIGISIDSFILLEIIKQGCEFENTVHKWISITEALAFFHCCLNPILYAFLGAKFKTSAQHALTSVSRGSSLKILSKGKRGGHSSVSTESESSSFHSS

The target of the assay is CXCR4 (Homo sapiens, UniProt P61073). As to the kind of experiment: HPB-ALL CXCR4 competitive binding assay (12G5 binding assay). The following applies: HPB-ALL cells; competition with APC-conjugated anti-human CXCR4 clone 12G5 at its EC80; 4° C. for 3 h; FACS. Also noted: HPB-ALL cells were maintained in RPMI-1640 (Gibico) supplemented with 10% FBS (Hyclone); endogenous in cells; host or cells: HPB-ALL cells. On the procedure:
HPB-ALL CXCR4 Competitive Binding Assay
HPB-ALL cells were maintained in RPMI-1640 (Gibico) supplemented with 10% FBS (Hyclone). APC-conjugated anti-human CXCR4 was from Sungene. EC80 was first determined for 12G5 binding to CXCR4. Then the compounds for testing were added into 96-well plates serially diluted at a ratio of 1:3. Cells were washed once with ice-cold assay buffer (DPBS+2% HI-FBS) and then re-suspended in the same buffer at a final concentration of 1×10^6/mL. Cell suspension was then added into the wells and with the addition of APC-conjugated anti-human CXCR4 clone 12G5 at its EC80 determined. The mix of cell, compounds and APC-conjugated anti-human CXCR4 were incubated at 4° C. for 3 h before addition of 100 μL of 4% PFA. Cells were then washed once and resuspended in assay buffer and examined by FACS. The percent (%) effect at each concentration of compound was calculated and relative to the amount of calcium produced in the positive and negative control wells contained within each assay plate. The concentrations and % effect values for tested compounds were plotted and the concentration of compound required for 50% effect (IC50) was determined. Tables 2 summarize results of the CXCR4 competitive binding assay for selected compounds disclosed in the present disclosure. FIGS. 1-2 depict the IC50 curves of compounds A42 and A43.
On to `Cc1nc(CN(C)C(C)c2ccccn2)cc(N2CCN(C)CC2)n1` (centres unmarked) [Compound A52], for which the IC50 stood at 27 nM.

With `CCN1CCN(c2cc(CN(C)C3CCCc4cccnc43)ncn2)CC1` (centres unmarked) [Compound A23], the IC50 came to 34 nM.

`CC(C)Nc1nc(CN(C)C2CCCc3cccnc32)cc(N2CCN(C)CC2)n1` (centres unmarked) [Compound A20] showed an IC50 of 210 nM.

For the compound `Cc1nc(CN(C)C2CCCc3cccnc32)cc(N2CCN(C)CC2)n1` (centres unmarked) [Compound A9, N-methyl-N-((2-methyl-6-(4-methylpiperazin-1-yl)pyrimidin-4-yl)methyl)-5,6,7,8-tetrahydroquinolin-8-amine], the IC50 amounted to 14 nM.

Compound `CSc1nc(CN2CCCCC2c2ccccn2)cc(N2CCN(C)CC2)n1` (centres unmarked) [Compound C10] had an IC50 of 248 nM.

Consider `Cc1nc(CN(C)[C@H]2CCCc3cccnc32)cc(N2CCC(N3CCN(C)CC3)CC2)n1` [Compound A74], for which the concentration for half-maximal inhibition (IC50) was determined as 100 nM.

The compound `CN1CCN(c2cc(CN(C)C3CCCc4cccnc43)nc(N(C)CCO)n2)CC1` (centres unmarked) [Compound A15] yielded a concentration for half-maximal inhibition (IC50) of 606 nM.

`CN1CCN(c2cc(CN(C)C3CCCc4cccnc43)nc(-c3cnn(C)c3)n2)CC1` (centres unmarked) [Compound A21] gave an IC50 of 790 nM.

For the compound `CN1CCN(c2cc(CN(C)C3CCCc4cccnc43)nc(N(C)C)n2)CC1` (centres unmarked) [Compound A12], the IC50 came to 8000 nM.

In the case of `Cc1nc(CN(C)[C@H]2CCCc3cccnc32)cc(N2C[C@@H](C)N(C)[C@@H](C)C2)n1` [Compound A67], the half-maximal inhibitory concentration (IC50) amounted to 12 nM.

`CN(C)CCN(C)c1cc(CN(C)C2CCCc3cccnc32)ncn1` (centres unmarked) [Compound A2] displayed a half-maximal inhibitory concentration (IC50) of 228 nM.

In turn, `Cc1nc([C@H]2CCCCN2[C@H]2CCCc3cccnc32)cc(N2CCN(C)CC2)n1` [Compound C6] had an IC50 of 3240 nM. This IC50 lies about 14-fold higher than the previous one.

Compound `Cc1nc(CN(C)C(C)(C)c2ccccn2)cc(N2CCN(C)CC2)n1` [Compound A62] showed an IC50 of 2290 nM.

Take `CN1CCN(c2cc(CN(C)C3CCCc4cccnc43)nc(N)n2)CC1` (centres unmarked) [Compound A16]: the IC50 came out at 17 nM. Against the preceding compound, the IC50 is about 130-fold lower.

As for `Cc1cccc(C(C)N(C)Cc2cc(N3CCN(C)CC3)nc(C)n2)n1` (centres unmarked) [Compound A56], the IC50 was determined as 131 nM.

As to `Cc1nc(CN(C)C(CCCN)c2ccccn2)cc(N2CCN(C)CC2)n1` (centres unmarked) [Compound A38], the IC50 came out at 6940 nM.

`CN1CCN(c2cc(CN(C)[C@H]3CCCc4cccnc43)nc(C(F)(F)F)n2)CC1` [Compound A48]: the IC50 was determined as 240 nM.

In the case of `Cc1nc(CN(C)C(CCCNC(=O)OC(C)(C)C)c2ccccn2)cc(N2CCN(C)CC2)n1` (centres unmarked) [Compound A37], the IC50 was 4430 nM.

Take `Cc1nc(CN(C)[C@H]2CCCc3cccnc32)cc(N2CCN(C)C[C@H]2C)n1` [Compound A63, (S)-N-((6-((R)-2,4-dimethylpiperazin-1-yl)-2-methylpyrimidin-4-yl)methyl)-N-methyl-5,6,7,8-tetrahydroquinolin-8-amine]: the IC50 is 29 nM.

The compound `Cc1nc([C@H]2C[C@@H](O)CN2[C@H]2CCCc3cccnc32)cc(N2CCN(C)CC2)n1` [Compound C16, (3R,5R)-5-(2-methyl-6-(4-methylpiperazin-1-yl)pyrimidin-4-yl)-1-((S)-5,6,7,8-tetrahydroquinolin-8-yl)pyrrolidin-3-ol] displayed an IC50 of 7.74 nM.

For the compound `Cc1nc(CN(C)C2CCCc3cccnc32)c(F)c(N2CCN(C)CC2)n1` (centres unmarked) [Compound A51], the IC50 worked out at 16 nM.

As for `Cc1ccnc(C(C)N(C)Cc2cc(N3CCN(C)CC3)nc(C)n2)c1` (centres unmarked) [Compound A54], the concentration for half-maximal inhibition (IC50) was found to be 356 nM.

Compound `CCN(Cc1cc(N2CCN(C)CC2)nc(C)n1)C1c2ncccc2CCC12CC2` (centres unmarked) [Compound A44] registered an IC50 of 296 nM.

In turn, `CSc1nc(CN(C)C(CCCCNC(=O)OC(C)(C)C)c2ccccn2)cc(N2CCN(C)CC2)n1` (centres unmarked) [Compound A36] came in with an IC50 of 5730 nM.

In turn, `CCN1CCN(c2cc(CN(C)C3c4ncccc4CCC34CC4)nc(C)n2)CC1` (centres unmarked) [Compound A45] displayed an IC50 of 886 nM.

In turn, `Cc1nc(CN(C)[C@H]2CCCc3cccnc32)cc(N2CCN(C)CC2CO)n1` (some centres unmarked) [Compound A73] displayed an IC50 of 32 nM.

For `CCN1CCN(c2cc(CN(C)[C@H]3CCCc4cccnc43)nc(C)n2)CC1` [Compound A43], the IC50 was 11 nM.

Consider `CCc1nc(CN(C)C2CCCc3cccnc32)cc(N2CCN(C)CC2)n1` (centres unmarked) [Compound A28], for which the IC50 was 21 nM. This IC50 lies about 1.9-fold higher than the previous one.

In the case of `Cc1nc(CN(C)[C@H]2CCCc3cccnc32)cc(N2CCN3CCC[C@H]3C2)n1` [Compound A69], the IC50 is 27 nM.

`Cc1nc(CN2CCC[C@H]2c2ncccc2C)cc(N2CCN(C)CC2)n1` [Compound C25] displayed an IC50 of 68 nM.

As to `Cc1nc([C@H]2C[C@@H](O[Si](C)(C)C(C)(C)C)CN2[C@H]2CCCc3cccnc32)cc(N2CCN(C)CC2)n1` [Compound C15], the IC50 is 500 nM.

Turning to `CSc1nc(CN2CCCCC2c2ccccn2)cc(N2CCN(C)CC2)n1` (centres unmarked) [Compound C18], the IC50 was determined as 429 nM.

Consider `CSc1nc(CN2CCCC2c2ccccn2)cc(N2CCN(C)CC2)n1` (centres unmarked) [Compound C11], for which the IC50 is 142 nM.

With `CN1CCN(c2cc(CN(C)C3CCCc4cccnc43)nc(-c3ccccc3)n2)CC1` (centres unmarked) [Compound A17], the IC50 was 2690 nM. Against the preceding compound, the IC50 is about 19-fold higher.

Regarding `CSc1nc(CN(C)C2CCCc3cccnc32)c(C)c(N2CCN(C)CC2)n1` (centres unmarked) [Compound A27], the IC50 amounted to 7.9 nM.

`Cc1nc(CN(C)[C@H]2CCCc3cccnc32)cc(N2CCN(C)[C@H](C)C2)n1` [Compound A65] yielded an IC50 of 13 nM. This IC50 lies about 1.6-fold higher than the previous one.

With `CN(C)c1ncc(CN(C)C2CCCc3cccnc32)c(NCCNC(=O)OC(C)(C)C)n1` (centres unmarked) [Compound B7, reference compound], the IC50 was > 10000 nM.

Take `CCNc1nc(CN(C)C2CCCc3cccnc32)cc(N2CCN(C)CC2)n1` (centres unmarked) [Compound A19]: the concentration for half-maximal inhibition (IC50) was 67 nM.

With `CC(C)N1CCN(c2cc(CN(C)C3CCCc4cccnc43)ncn2)CC1` (centres unmarked) [Compound A24], the IC50 was found to be 42 nM.

Compound `CN1CCN(c2ccnc(CN(C)C3CCCc4cccnc43)n2)CC1` (centres unmarked) [Compound A50, N-methyl-N-((4-(4-methylpiperazin-1-yl)pyrimidin-2-yl)methyl)-5,6,7,8-tetrahydroquinolin-8-amine] came in with a half-inhibitory concentration (IC50) of 211 nM.

`Cc1nc(CN(C)[C@H]2CCCc3cccnc32)cc(N2CCN3CCC[C@@H]3C2)n1` [Compound A68] returned an IC50 of 46 nM.

In turn, `Cc1nc([C@H]2CCN2[C@@H]2CCCc3cccnc32)cc(N2CCN(C)CC2)n1` [Compound C14] returned an IC50 of 8110 nM.

`CSc1nc([C@H](C)N(C)[C@H]2CCCc3cccnc32)cc(N2CCN(C)CC2)n1` [Compound A32]: the IC50 stood at 22 nM.

Compound `CC(c1ccccn1)N(C)Cc1cc(N2CCN(C)CC2)ncn1` (centres unmarked) [Compound A4] came in with a concentration for half-maximal inhibition (IC50) of 229 nM.

Take `CN(C)c1ncc(CN(C)C2CCCc3cccnc32)c(NCCN)n1` (centres unmarked) [Compound B8, reference compound]: the IC50 is > 10000 nM.

With `Cc1nc(CN(C)C2c3ncccc3CCC23CC3)cc(N2CCN(C)CC2)n1` (centres unmarked) [Compound A41], the IC50 came to 97 nM.

The compound `Cc1nc(CN2CCC(C)C2c2ccccn2)cc(N2CCN(C)CC2)n1` (centres unmarked) [Compound C29] came in with a concentration for half-maximal inhibition (IC50) of 1200 nM. Compared with the last compound, the IC50 is about 12-fold higher.

As to `Cc1nc(CN(C)[C@H]2CCCc3cccnc32)cc(N2CCN(C3CC3)CC2)n1` [Compound A47], the IC50 turned out to be 58 nM. This IC50 is about 21-fold lower than that of the compound before.

For the compound `Cc1nc(CN(C)[C@H]2CCCc3cccnc32)cc(N2CCC(N3CCOCC3)CC2)n1` [Compound A72], the IC50 amounted to 146 nM.

For the compound `CSc1nc([C@@H](C)N(C)[C@@H]2CCCc3cccnc32)cc(N2CCN(C)CC2)n1` [Compound A35], the IC50 was found to be 106 nM.

With `CO[C@@H]1C[C@H](c2cc(N3CCN(C)CC3)nc(C)n2)N([C@H]2CCCc3cccnc32)C1` [Compound C21], the IC50 was 82 nM.

With `CSc1nc([C@H]2CCCN2[C@H]2CCCc3cccnc32)cc(N2CCN(C)CC2)n1` [Compound C1], the 50% inhibitory concentration (IC50) came to 93 nM.

For the compound `Cc1nc([C@H]2CCN2[C@H]2CCCc3cccnc32)cc(N2CCN(C)CC2)n1` [Compound C13], the IC50 turned out to be 62 nM. This IC50 lies about 1.5-fold lower than the previous one.

With `Cc1nc(CN(C)[C@H](C)c2ccccn2)cc(N2CCN(C)CC2)n1` [Compound A76], the IC50 turned out to be 220 nM.

`CN(C)C1CCN(c2cc(CN(C)C3CCCc4cccnc43)ncn2)C1` (centres unmarked) [Compound A39]: the IC50 is 94 nM. This IC50 lies about 2.3-fold lower than the previous one.

Take `Cc1nc(CN(CC2CC2)C2CCCc3cccnc32)cc(N2CCN(C)CC2)n1` (centres unmarked) [Compound A59]: the IC50 was determined as 63 nM.

In turn, `Cc1ccnc([C@@H]2CCCN2Cc2cc(N3CCN(C)CC3)nc(C)n2)c1` [Compound C26] gave a 50% inhibitory concentration (IC50) of 206 nM.

As to `COc1nc(CN(C)C2CCCc3cccnc32)cc(N2CCN(C)CC2)n1` (centres unmarked) [Compound A10], the IC50 was found to be 23 nM.

Regarding `Cc1nc(CN2CCC[C@H]2c2ccccn2)cc(N2CCN(C)CC2)n1` [Compound C23], the IC50 was 144 nM. This IC50 is about 6.3-fold higher than that of the compound before.

`Cc1nc(CN(C)[C@H]2CCCc3cccnc32)cc(NCCN2CCOCC2)n1` [Compound A71]: the 50% inhibitory concentration (IC50) is 90 nM.

`Cc1nc(CN(C)[C@H]2CCCc3cccnc32)cc(N2CCN(C3COC3)CC2)n1` [Compound A49]: the IC50 was determined as 123 nM. This IC50 and that of the compound before are within 1.5-fold of each other.

`Cc1nc(CN(C)[C@H]2CCCc3cccnc32)cc(N2CCN(C)C[C@@H]2C)n1` [Compound A64] displayed a concentration for half-maximal inhibition (IC50) of 21 nM.

One may read the IC50 as the midpoint of a concentration-inhibition curve. A high value points to weaker potency in that assay.
